Experimental data: patent US20220370416A1, “COMPOUNDS AND METHODS FOR TARGETED DEGRADATION OF KRAS” (Arvinas Operations, Inc., priority 2020, published 2022)

Columns and labels:
Format in all cases: cell-based
KRAS^G12C [1] = biological target: T1, KRAS^G12C (Homo sapiens, UniProt P01116, G12C); test: KRAS^G12C degradation by immunoblot in NCI-H23 cells; parameters: MRTX849-VHL bifunctional compounds engage and degrade endogenous KRAS^G12C in NCI-H2030 cells; endogenous in cells; host or cells: NCI-H2030, NCI-H358, MIA PaCa-2, SW1573, NCI-H23; conditions: for KRAS, two-way ANOVA significance vs DMSO: FIG. 9B
Experimental: (§1) NCI-H2030 (CRL-5914), MIA PaCa-2 (CRL-1420), NCI-H23 (CRL-5800), NCI-H358 (CRL-5807), and HCT-116 (CCL-247) cells were obtained from ATCC, expanded immediately, and frozen down. Vials were thawed and used within 20 passages. SW1573 cells were a gift from Arvinas and were handled in the same manner. NCI-H2030, NCI-H23, and NCI-H358 were cultured in RPMI (ATCC30-2001) supplemented with 10% FBS (Biological Industries; cat. no. S1480) and 1% Penicillin-Streptomycin (ThermoFisher; cat. no. 15140122). HCT-116 cells were maintained in high glucose DMEM (ThermoFisher; cat. no. 11965084) supplemented as above. MIA PaCa-2 cells were cultured in high glucose DMEM supplemented with 10% FBS, 2.5% horse serum (ThermoFisher; cat. no. 26050-088; lot 2109875), and 1% Penicillin-Streptomycin. SW1573 cells were maintained in DMEM/F12 Nutrient Mix with GlutaMAX supplement (ThermoFisher; cat. no. 10565018) with 10% FBS and 1% Penicillin-Streptomycin added. DPBS (ThermoFisher; cat. no. 14190250) was used to wash cells and 0.25% Trypsin-EDTA (ThermoFisher; cat. no. […]) was used to detach cells for passaging. […] The VHL ligand was generously provided by Arvinas.
(§2) Between 2.5×10^5 and 6.0×10^5 cells were seeded into 6-well plates (Corning; cat. no. 353046). The next day, media was removed and cells were treated with 2.5 μM LC-2 for 1, 2, 4, 8, 12, or 24 hours. […] For 24-hour time course experiments, cells were treated at the indicated times and concurrently lysed in RIPA buffer supplemented as described previously. For longer time course experiments and time courses in which cells were treated with LC-2 or LC-2 Epimer, cells were concurrently treated with either compound, then lysed by scraping in RIPA buffer at the indicated time points.
(§3) Between 2.5×10^5 and 5.0×10^5 cells were seeded into 6-well plates. The next day cells were pretreated with DMSO, 500 μM or 1 mM VHL ligand, 1 μM epoxomicin, 1 μM […], or 100 nM […] bafilomycin A1 for 1 hour. Media was then removed and cells were treated with DMSO, 2.5 μM LC-2 plus DMSO, 2.5 μM LC-2 Epimer plus DMSO, or co-treated with 2.5 μM LC-2 and the corresponding competitor/inhibitor. H2030 cells were treated for 4 hours and H23 cells were treated for 24 hours, after which cells were lysed by scraping in RIPA buffer supplemented as described previously.
(§4) Cell lysates were clarified at 21000×g for 15 mins at 4° C. Protein levels were quantified using a 50:1 mixture of bicinchoninic acid solution (Millipore Sigma; cat. no. B9643) and 4% (w/v) copper(II) sulfate solution (Millipore Sigma; cat. no. C2284) incubated at 37° C. for 30 mins. Absorbance values at 560 nm were read on an EnVision 2101 Multilabel Reader (PerkinElmer). Proteins were separated using 26 well Criterion TGX precast 4-15% (cat. no. 5671085) or 8-16% (cat. no. 5671105) gradient midi gels. After separation, proteins were transferred to nitrocellulose or PVDF membranes at 76 V for 2 hours at 4° C. Blots were then blocked in 5% milk in tris-buffered saline with Tween-20 (TBST; 20 mM Tris, 150 mM NaCl, 0.02% Tween-20). After blocking, blots were incubated in primary antibody overnight (12-18 hours) at 4° C. or for 2 hours at room temperature with mild agitation at the manufacturer's indicated dilution in either 5% milk or 5% BSA in TBST. Blots were then washed thrice with TBST for 5 mins at room temperature. After washing, blots were incubated with 1:5,000-1:10,000 of donkey anti-rabbit (GE Life Sciences; NA934) or sheep anti-mouse (GE Life Sciences; NA931) secondary antibody diluted in 5% milk for 1 hour at room temperature with mild agitation. Blots were again washed thrice with TBST for 5 mins. Chemiluminescent signal was generated using Amersham ECL Prime Western Blotting Detection Reagant (GE Life Sciences; cat. no. RPN2232) or SuperSignal West Femto Maximum Sensitivity Substrate (ThermoFisher; cat. no. 34095). Images were obtained using a Bio-Rad ChemiDoc Imager.

KRAS^G12C [2] = biological target: T1, KRAS^G12C; test: Engagement and degradation of endogenous KRAS^G12C in NCI-H2030 cells (blot quantitation); parameters: MRTX849-VHL bifunctional compounds engage and degrade endogenous KRAS^G12C in NCI-H2030 cells; endogenous in cells; host or cells: NCI-H2030; conditions: dose response (FIG. 2B)
KRAS^G12C [3] = biological target: T1, KRAS^G12C; test: KRAS^G12C engagement and degradation by immunoblot in NCI-H2030 cells; parameters: MRTX849-VHL bifunctional compounds engage and degrade endogenous KRAS^G12C in NCI-H2030 cells; endogenous in cells; host or cells: NCI-H2030, NCI-H358, MIA PaCa-2, SW1573, NCI-H23; conditions: for rescue of LC-2 induced KRAS^G12C degradation by inhibitor: NCI-H2030, 1 μM inhibitor before 2.5 μM LC-2
Experimental: as §1, §2, §3, §4

With `CO/C1=C\C(C)=C\[C@@H](C)[C@@H](O)[C@@H](C)C/C(C)=C/C=C/[C@H](OC)[C@@H]([C@@H](C)[C@@H](O)[C@H](C)[C@@]2(O)C[C@@H](O)[C@H](C)[C@@H](C(C)C)O2)OC1=O` [BafA1, bafilomycin A1, reference compound] the “rescue of LC-2 induced KRAS^G12C degradation by inhibitor” value (“rescue … by inhibitor” below) (KRAS^G12C [1]; NCI-H23, pre-treatment before LC-2) was “unable to rescue”.
With `C=C(F)C(=O)N1CCN(c2nc(OC[C@@H]3CCCN3CCC(=O)NCCOCCOCCC(=O)N[C@H](C(=O)N3C[C@H](O)C[C@H]3C(=O)NCc3ccc(-c4scnc4C)cc3)C(C)(C)C)nc3c2CCN(c2cccc4cccc(Cl)c24)C3)C[C@@H]1CC#N` [LC-1, (2S,4R)-1-((S)-2-(tert-butyl)-16-((S)-2-(((7-(8-chloronaphthalen-1-yl)-4-((S)-3-(cyanomethyl)-4-(2-fluoroacryloyl)piperazin-1-yl)-5,6,7,8-tetrahydropyrido[3,4-d]pyrimidin-2-yl)oxy)methyl)pyrrolidin-1-yl)-4,14-dioxo-7,10-dioxa-3,13-diazahexadecanoyl)-4-hydroxy-N-(4-(4-methylthiazol-5-yl)benzyl)pyrrolidine-2-carboxamide] the “engagement of KRAS^G12C” value (KRAS^G12C [2]) was “engages KRAS^G12C in a dose dependent manner”, the “effect on KRAS protein levels” value (KRAS^G12C [3]; 10 μM, compound screen (FIG. 2C)) was “increased KRAS protein levels” and the “KRAS, two-way ANOVA significance vs DMSO” value (KRAS^G12C [3]; NCI-H2030, 10 μM, FIG. 9A) was “* (* p < 0.05)”. For the same compound, the “KRAS engagement (band shift)” value (KRAS^G12C [3]; NCI-H2030, 24 hours, at 1, 2.5, 10, and 25 μM) was “clear band shift”, the “reduction in KRAS levels” value (KRAS^G12C [3]; NCI-H2030, 24 hours, increasing concentrations) was “small, non-significant reduction” and the “KRAS, two-way ANOVA significance vs DMSO” value (KRAS^G12C [1]; NCI-H23, 0.1 μM) was “N.S”. The “KRAS, two-way ANOVA significance vs DMSO” value (KRAS^G12C [1]; NCI-H23, 10 μM) was “N.S”.
In the case of `NS(=O)(=O)OC[C@@H]1C[C@@H](n2ccc3c(N[C@H]4CCc5ccccc54)ncnc32)C[C@@H]1O` [MLN924, reference compound], the “rescue … by inhibitor” value (KRAS^G12C [3]) is reported as “rescued KRAS^G12C levels”.
With `CC[C@H](C)[C@H](NC(=O)[C@H]([C@@H](C)CC)N(C)C(C)=O)C(=O)N[C@H](C(=O)N[C@@H](CC(C)C)C(=O)[C@@]1(C)CO1)[C@@H](C)O` [epoxomicin, reference compound] the “rescue … by inhibitor” value (KRAS^G12C [3]) was “rescued KRAS^G12C levels”.
